Holding throughout (format): biochemical
In assay [1] the target is T1, PDE8A (Homo sapiens, UniProt Q9Y233).
T1 construct: made in house; host or cells: yeast strain BJ2-54 lacking endogenous PDE activity; plasmid W48-2ADH2 (ATCC 98552); crude yeast extract
As to the kind of experiment: Inhibition of recombinant PDE8A activity (32P-phosphate release from 32P-cAMP). The conditions noted are these: for Fold Difference: IC50 for PDE8 versus IC50 for target family; for pIC50: read-out: IC50 for PDE8. As to the method:
(§1) Frozen cell pellets (0.06 ml) were thawed and suspended in 0.2 ml lysis buffer containing 100 mM MOPS, pH 8.0, 200 mM NaCl, 2 μM […], 2 mM dithiothreitol, and 10 μg/ml each protease inhibitors pepstatin, leupeptin, and aprotinin. Approximately 0.2 ml of 0.5 mm glass beads were added to the cells which were then lysed with four 30-second cycles of vortexing. The lysate was aspirated and the beads were washed twice with 0.3 ml lysis buffer. The lysate was combined with the washes to generate the yeast extract. In some experiments the lysate was fractionated by centrifugation at 105,000×g for thirty minutes.
PDE activity was assayed by detection of ^32P-phosphate released from ^32P-cAMP or ^32P-cGMP as described previously [Loughney et al., J. Biol. Chem. 271:796-806 (1996)]. The yeast extract was diluted in 0.5×lysis buffer also containing 0.5 mg/ml bovine serum albumin. Twenty μl of the yeast extract, or diluted yeast extract, was assayed in a 100 μl reaction volume which included an additional 50 mM Tris-HCl (pH 8.0), 5 mM MgCl2 1 μM Zn SO2, and 0.1 mg/ml bovine serum albumin. Protein concentration was assayed by the method of Bradford.

A further assay deals with PDE2 (Homo sapiens, UniProt O00408). Description: IC50 of isozyme-selective inhibitor for its target family PDE2. The conditions noted are these: Target PDE Family PDE2.
Assay [2] concerns known human PDEs (Non-selective). As to the kind of experiment: IC50 of non-selective inhibitor for known PDEs. Particulars: read-out: IC50 for Target Family.
The target of assay [3] is T1, PDE8A. Description: Kinetic analysis of PDE8A hydrolysis of cyclic nucleotide substrates in yeast extract. Particulars: estimated, substrate of PDE8A, yeast lysate. As to the method: as §1
The yeast extract was diluted in 0.5×lysis buffer also containing 0.5 mg/ml bovine serum albumin. Twenty μl of the yeast extract, or diluted yeast extract, was assayed in a 100 μl reaction volume which included an additional 50 mM Tris-HCl (pH 8.0), 5 mM MgCl2 1 μM Zn SO2, and 0.1 mg/ml bovine serum albumin. Protein concentration was assayed by the method of Bradford.

The subject of another assay is PDE3. As to the kind of experiment: IC50 of isozyme-selective inhibitor for its target family PDE3. The conditions noted are these: Target PDE Family PDE3.
Another assay addresses PDE5 (Homo sapiens, UniProt O76074). Description: IC50 of isozyme-selective inhibitor for its target family PDE5. The conditions noted are these: Target PDE Family PDE5.
Where [4] appears, read: cAMP concentration of 60 nM, low Km form only, yeast extract.

pIC50: −log10 of the molar value. Read-outs that look alike come from different tables or passages of the source.

T1 sequence (Q9Y233 290-1055 limits assumed): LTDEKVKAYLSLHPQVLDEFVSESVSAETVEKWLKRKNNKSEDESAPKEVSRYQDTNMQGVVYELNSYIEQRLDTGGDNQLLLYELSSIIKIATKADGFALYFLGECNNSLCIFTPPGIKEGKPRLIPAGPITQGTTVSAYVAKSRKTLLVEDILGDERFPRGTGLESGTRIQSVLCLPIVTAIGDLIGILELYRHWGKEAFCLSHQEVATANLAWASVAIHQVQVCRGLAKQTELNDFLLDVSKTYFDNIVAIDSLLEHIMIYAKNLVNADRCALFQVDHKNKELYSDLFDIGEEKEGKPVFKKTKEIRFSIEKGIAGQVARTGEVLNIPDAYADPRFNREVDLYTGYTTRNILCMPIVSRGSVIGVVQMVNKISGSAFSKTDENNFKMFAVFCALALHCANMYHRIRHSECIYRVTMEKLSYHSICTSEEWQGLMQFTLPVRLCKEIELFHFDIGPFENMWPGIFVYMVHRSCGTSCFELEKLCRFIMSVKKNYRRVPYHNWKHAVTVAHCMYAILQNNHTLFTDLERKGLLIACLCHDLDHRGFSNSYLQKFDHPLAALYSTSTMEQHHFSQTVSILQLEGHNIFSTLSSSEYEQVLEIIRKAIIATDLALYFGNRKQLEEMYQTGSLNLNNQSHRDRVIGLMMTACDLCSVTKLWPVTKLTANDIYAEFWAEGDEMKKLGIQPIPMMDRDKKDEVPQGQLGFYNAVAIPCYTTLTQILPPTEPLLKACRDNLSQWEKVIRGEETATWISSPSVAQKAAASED
Chain of PDE2 (O00408 whole entry): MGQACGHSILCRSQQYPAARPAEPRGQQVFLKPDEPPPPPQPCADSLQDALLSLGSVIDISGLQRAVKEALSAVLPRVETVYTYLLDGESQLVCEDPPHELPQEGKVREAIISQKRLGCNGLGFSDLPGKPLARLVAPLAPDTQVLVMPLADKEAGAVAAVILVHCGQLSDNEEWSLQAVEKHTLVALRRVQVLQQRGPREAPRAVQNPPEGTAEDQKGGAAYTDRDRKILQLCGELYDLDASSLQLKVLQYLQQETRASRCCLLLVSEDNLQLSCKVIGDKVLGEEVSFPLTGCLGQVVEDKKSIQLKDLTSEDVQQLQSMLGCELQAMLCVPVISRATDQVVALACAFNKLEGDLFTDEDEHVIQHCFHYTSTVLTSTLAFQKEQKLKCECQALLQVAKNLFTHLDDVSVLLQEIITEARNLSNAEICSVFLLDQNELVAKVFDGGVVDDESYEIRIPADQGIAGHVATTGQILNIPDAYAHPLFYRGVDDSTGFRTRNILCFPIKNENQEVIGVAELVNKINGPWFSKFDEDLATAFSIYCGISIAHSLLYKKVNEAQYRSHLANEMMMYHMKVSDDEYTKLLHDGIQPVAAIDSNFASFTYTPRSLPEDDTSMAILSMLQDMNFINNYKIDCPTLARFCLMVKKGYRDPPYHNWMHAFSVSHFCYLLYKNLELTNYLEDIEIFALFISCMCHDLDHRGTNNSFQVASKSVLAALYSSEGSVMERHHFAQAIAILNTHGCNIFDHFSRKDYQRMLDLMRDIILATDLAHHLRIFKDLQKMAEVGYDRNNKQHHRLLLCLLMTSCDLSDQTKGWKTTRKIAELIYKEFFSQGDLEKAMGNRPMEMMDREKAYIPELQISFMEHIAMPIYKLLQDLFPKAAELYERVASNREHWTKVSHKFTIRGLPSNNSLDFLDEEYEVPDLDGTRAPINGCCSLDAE

As to `CCCCCCC(C(C)O)n1cnc2c(N)ncnc21` (stereo not drawn) [EHNA, erythro-9-(2-hydroxy-3-nonyl)adenine], on PDE8A [1], the “Fold Difference” value worked out at 31 and the pIC50 was 4.19. Further, the pIC50 against PDE2 is 5.70.

Take `CC(C)Cn1c(=O)n(C)c(=O)c2[nH]cnc21` [IBMX, isomethyl butyl xanthine]: the “Fold Difference” value at PDE8A [1] is listed as 0.12-4.6. Moreover, the pIC50 at PDE8A [1] (setting [4]) is 5.34; in assay [2] it was 4.40 to 6.00.

In the case of `Nc1nc2c(ncn2[C@@H]2O[C@@H]3COP(=O)(O)O[C@H]3[C@H]2O)c(=O)[nH]1` [cGMP], the Km at PDE8A [3] (read-out: Km, high Km form) is 300 µM; at PDE8A [3] (read-out: Km, low Km form), 3 µM.

On to `CN(C(=O)CCCOc1ccc2[nH]c(=O)ccc2c1)C1CCCCC1` [Cilostamide], for which the “Fold Difference” value at PDE8A [1] is given as 750. Besides, the pIC50 is 4.92 on PDE8A [1] and 7.70 with PDE3.

For the compound `CCCOc1ccc(NS(C)(=O)=O)cc1-c1nc2c(c(C)nn2C)c(=O)[nH]1` [DMPPO], at PDE8A [1], the “Fold Difference” value came out at 66. Moreover, the pIC50 on PDE8A [1] (setting [4]) is 5.96; against PDE5, 7.80.

By pIC50 is commonly meant −log10 of the IC50, conventionally taken in molar units. As usually defined, the Km is the substrate concentration at which the rate is half of its maximum.

The values are drawn from patent US6566087B1, “Phosphodiesterase 8A” (ICOS Corporation, priority 1997, dated 2003).
